Source: PubChem BioAssay (NCI)
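Step 1: Grow cells in 96-well plates. Step 2: Expose to compound for 48 hours at 5 concentrations. Step 3: Interpolate endpoints linearly; if unreached, use highest concentration. Here, GI50 denotes the concentration required for 50% inhibition of growth. TGI is the concentration that stops growth completely.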

What was measured:
Assay in all cases: NCI tumour cell line growth inhibition, 48 h
[1] = test system: EKVX NSCLC
[2] = test system: HOP-62 NSCLC
[3] = test system: HT29 colon
[4] = test system: LOX IMVI melanoma
[5] = test system: MALME-3M melanoma
[6] = test system: NCI-H23 lung
[7] = test system: SN12C renal
[8] = test system: U251 CNS
[9] = test system: UACC-257 melanoma
[10] = test system: MDA-MB-231 breast

Row | SMILES | TGI [1] [µM] | TGI [2] [µM] | TGI [3] [µM] | TGI [4] [µM] | TGI [5] [µM] | TGI [6] [µM] | TGI [7] [µM] | TGI [8] [µM] | TGI [9] [µM] | GI50 [1] [µM] | GI50 [2] [µM] | GI50 [3] [µM] | GI50 [10] [µM] | TGI [10] [µM] | GI50 [6] [µM] | GI50 [7] [µM] | GI50 [8] [µM] | GI50 [9] [µM]
1 | CC1=C(C(=O)Nc2cc(=O)n(C)c(=O)n2C)C(c2ccc([N+](=O)[O-])cc2)C(C(=O)Nc2cc(=O)n(C)c(=O)n2C)=C(C)N1 | > 100 | > 100 | > 100 | > 100 | > 100 | > 100 | > 100 | > 100 | > 100 |  |  |  |  |  |  |  |  | 
2 | CC(=O)C1C(=O)NC(=O)C1=O (configuration not stated) | > 100 | > 100 | > 100 | > 100 | > 100 | > 100 | > 100 | > 100 | > 100 |  |  |  |  |  |  |  |  | 
3 | COc1cc(O)c2c(c1)C(=O)C=C(Cl)C2=O | > 100 |  | > 100 | > 100 | > 100 | > 100 |  | > 100 | > 100 |  |  |  |  |  |  |  |  | 
4 | O=C(CC1(O)C(=O)Nc2ccccc21)c1ccco1 (configuration not stated) | > 100 | > 100 | > 100 | > 100 | > 100 | > 100 | > 100 |  | > 100 |  |  |  |  |  |  |  |  | 
5 | O=S(=O)(SCc1ccccc1)C(c1ccccc1)c1ccccc1 | > 100 | > 100 | 71.4 | > 100 | > 100 | 77.6 | 68.2 | > 100 | > 100 |  |  |  |  |  |  |  |  | 
6 | Cc1ccc(NC(=O)C(=O)CC(=O)C2CCOC2=O)c(C)c1 (configuration not stated) | > 100 | > 100 | > 100 | > 100 | > 100 | > 100 | > 100 | > 100 | > 100 |  |  |  |  |  |  |  |  | 
7 | CC(=O)OC1CC2Oc3ccc(C)cc3C(C)(O2)C1=O (configuration not stated) | > 100 | > 100 | > 100 | > 100 | > 100 | > 100 | > 100 | > 100 | > 100 |  |  |  |  |  |  |  |  | 
8 | COc1ccc(C(=O)C(c2ccc(OC)cc2)C2OC(=O)C(Cl)=C2Cl)cc1 (configuration not stated) | > 100 | > 100 | > 100 | > 100 | > 100 | > 100 | > 100 | > 100 | > 100 |  |  |  |  |  |  |  |  | 
9 | O=C(Nc1cccc(Cc2cccc(NC(=O)c3ccccc3)c2)c1)c1ccccc1 | > 100 | 60.9 | > 100 | > 100 | 99.7 | > 100 | > 100 | > 100 | > 100 |  |  |  |  |  |  |  |  | 
10 | CC1(C)OB(O)OC1(C)C | > 100 | > 100 | > 100 | > 100 | > 100 | > 100 | > 100 |  | > 100 |  |  |  |  |  |  |  |  | 
11 | Cc1ccc(C2NC(=O)c3ccccc3N2)s1 (configuration not stated) | > 100 | > 100 |  | > 100 | > 100 | 58.2 | 52.8 | > 100 |  |  |  |  |  |  |  |  |  | 
12 | NC(=O)c1coc(C2OC(CO)C(O)C2O)n1 (configuration not stated) | > 100 | > 100 | > 100 | > 100 | > 100 | > 100 | > 100 | > 100 |  |  |  |  |  |  |  |  |  | 
13 | O=c1cc(-c2ccccc2)oc2cc(O)cc(O)c12 | 72 | > 100 | > 100 | 46.8 | 51.8 | 62.8 | 54.6 | 87.5 | 62.3 |  |  |  |  |  |  |  |  | 
14 | CN(CC#N)C1CCCC[C@H]1O (some centres not stated) | > 100 | > 100 | > 100 | > 100 | > 100 | > 100 | > 100 | > 100 | > 100 |  |  |  |  |  |  |  |  | 
15 | CN(C)CCSc1cccc(-c2cc(-c3cccc(SCCN(C)C)c3)nc(SCCN(C)C)n2)c1 | 5.24 | 30.2 | 3.4 | 3.03 | 3.38 | 15.3 | 24.7 | 3.54 | 3.02 |  |  |  |  |  |  |  |  | 
16 | C#CCN(N=O)C(=O)NC(CCCNC(=O)OCc1ccccc1)C(=O)OCc1ccccc1 (configuration not stated) | > 100 | > 100 | > 100 | > 100 | > 100 | > 100 | > 100 | > 100 | > 100 |  |  |  |  |  |  |  |  | 
17 | O=C(/C=C/C=C/c1c(C2CC2)nc2ccccc2c1-c1ccc(F)cc1)c1cccs1 | > 100 | 7.25 | 5.47 |  |  | > 100 | > 100 | 5.4 | 6.22 | 3.09 | 2.74 | 1.49 | 2.58 | > 100 | 2.35 | 2.25 | 1.9 | 1.97
18 | O/N=C1/C(=C/c2ccc(Oc3ccccc3)cc2)CCCC1C(NO)c1ccc(Oc2ccccc2)cc1 (configuration not stated) | > 100 | > 100 | 30.5 | 29.1 | > 100 | 63.3 | 96.7 | > 100 | > 100 |  |  |  |  |  |  |  |  | 
